The text below walks through data of US6967102B1, “Nitric oxide manipulation of muscle satellite cell activation” (University of Manitoba, priority 1999, dated 2005).

“Also recorded” adds a separate entry of the source.

In one test the test system is regenerating muscle. As to the kind of experiment: Muscle regeneration 6 days after crush injury, normal mice. Type of test: in vivo. The procedure: The time course of treatment effects was determined at two intervals; during the early response 0, 5, 10 and 30 min after injury, and over the longer term after 6 days recovery. Short term experiments were repeated at least twice. The longer term animals were maintained either on plain drinking water or water containing fresh L-NAME at 12.5 mg/100 ml (30 mg/kg/day), based on an intake of 6–7 ml/day/mouse (McIntosh et al., 1994. 17:444–453). In the longer term repair studies, there were 4 normal mice in each of saline- and L-NAME-treated groups. An additional 2 normal and 2 mdx mice were injected once before injury with L-NAME and given plain water for 6 days.
In the longer term study of NOS inhibition during repair, saline and L-NAME-treated normal mice recovered for 6 days. Two mice per group were injected 2 hr before sacrifice with BrdU (i.p., 1.6 mg in 0.4 ml saline) and sections were immunostained using anti-BrdU antibodies as above.
Sections and cultures were viewed on an Olympus microscope equipped with epifluorescence and phase contrast optics. Observations were based on systematic viewing of 2–4 longitudinal sections per muscle (separated by […]). In the case of muscle regenerating from crush injury, observations (without knowledge of treatment group) were made in pre-set fields of muscle from the central crush region, the adjacent regenerating region and the surviving region as reported (McIntosh et al. (1994) Muscle Nerve 17: 444–453). Representative photographs of muscle fibers and satellite cells were taken on over 700 frames of ASA 400 Fuji Sensia slide film. Where stated, the number of satellite cells observed in each category, group or condition was estimated from photographed slides rather than from direct counts made during observations under oil immersion. Selected slides were scanned (Olympus Film Scanner ES-10, Olympus Optical Co., Tokyo), formatted into plates with little or no enlargement and printed (Freehand 8.0, Macromedia Inc.).

In another test the target is T1, NOS (Mus musculus, UniProt Q9Z0J4).
T1 construct: confirmed using NADPH-diaphorase enzyme histochemistry on frozen sections; from tissue; host or cells: frozen sections of tibialis anterior muscle from normal mice pretreated ip with saline or L-NAME
T1 sequence (Q9Z0J4 1-1463 isoform Q9Z0J4-5): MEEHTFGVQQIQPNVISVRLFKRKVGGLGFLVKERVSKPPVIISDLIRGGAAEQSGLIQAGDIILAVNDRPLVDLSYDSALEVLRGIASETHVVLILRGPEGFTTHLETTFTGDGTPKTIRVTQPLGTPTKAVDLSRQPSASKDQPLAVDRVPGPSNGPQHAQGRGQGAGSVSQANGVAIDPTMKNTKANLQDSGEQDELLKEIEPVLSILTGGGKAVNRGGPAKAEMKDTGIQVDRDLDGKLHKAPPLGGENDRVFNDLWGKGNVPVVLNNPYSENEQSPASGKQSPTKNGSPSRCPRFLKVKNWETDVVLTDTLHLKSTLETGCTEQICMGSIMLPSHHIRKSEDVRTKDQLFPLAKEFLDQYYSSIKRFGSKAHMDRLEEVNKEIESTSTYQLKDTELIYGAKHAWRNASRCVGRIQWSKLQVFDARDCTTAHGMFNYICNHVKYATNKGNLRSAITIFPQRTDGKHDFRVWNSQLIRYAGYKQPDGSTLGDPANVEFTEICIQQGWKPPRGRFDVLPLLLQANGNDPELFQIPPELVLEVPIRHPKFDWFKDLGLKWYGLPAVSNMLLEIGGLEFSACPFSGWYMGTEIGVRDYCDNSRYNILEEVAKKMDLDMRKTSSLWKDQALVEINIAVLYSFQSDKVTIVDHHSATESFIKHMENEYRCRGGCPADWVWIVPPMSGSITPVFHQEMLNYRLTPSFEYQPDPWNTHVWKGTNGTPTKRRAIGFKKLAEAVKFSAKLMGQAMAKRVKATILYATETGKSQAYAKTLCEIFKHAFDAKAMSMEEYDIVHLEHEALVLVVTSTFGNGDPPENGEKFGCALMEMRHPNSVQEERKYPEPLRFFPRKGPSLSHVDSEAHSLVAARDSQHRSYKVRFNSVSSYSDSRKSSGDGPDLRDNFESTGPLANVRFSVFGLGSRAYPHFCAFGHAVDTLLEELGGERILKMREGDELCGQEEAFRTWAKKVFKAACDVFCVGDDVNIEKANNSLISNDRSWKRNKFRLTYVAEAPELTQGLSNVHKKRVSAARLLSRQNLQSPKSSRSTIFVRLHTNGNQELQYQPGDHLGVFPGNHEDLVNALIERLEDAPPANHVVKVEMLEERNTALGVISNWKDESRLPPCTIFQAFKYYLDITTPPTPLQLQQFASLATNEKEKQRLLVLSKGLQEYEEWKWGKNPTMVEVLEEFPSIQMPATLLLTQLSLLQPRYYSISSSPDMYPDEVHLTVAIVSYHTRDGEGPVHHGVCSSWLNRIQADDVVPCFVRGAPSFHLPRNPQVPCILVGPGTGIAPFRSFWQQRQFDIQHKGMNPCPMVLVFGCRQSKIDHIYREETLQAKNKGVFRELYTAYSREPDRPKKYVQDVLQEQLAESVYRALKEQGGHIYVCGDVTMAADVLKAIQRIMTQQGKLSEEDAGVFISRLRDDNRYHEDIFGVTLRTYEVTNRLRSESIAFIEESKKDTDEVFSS
Kind of test: NADPH-diaphorase enzyme histochemistry of NOS activity on muscle sections. Type of test: in vivo, mice. As to the method: Sections ([…]) were collected on glass slides and stained with toluidine blue. The inhibition of NOS enzyme activity by L-NAME treatment 30 min. before crush was confirmed using NADPH-diaphorase enzyme histochemistry on frozen sections with jejunal epithelium as the positive control, according to Beesley (1995) Histochem. J. 27: 757–769.
i) satellite cells are identified and examined for hypertrophy and position using immunostaining for two c-met receptor, m-cadherin, neural cell adhesion molecule (N-CAM or leu19) and CD34, as markers of muscle satellite precursor cells (Irintchev A, Zeschnigk M. Starzinski-Powitz A, and Wernig A. (1994). Dev. […] In other sections c-met and HGF colocalization are used to assess activation (after (Tatsumi R, Anderson J E, Nevoret C J, Halevy 0, and Allen R E. (1998). Dev. Biol. 194:114–128). Routine fluorescent or peroxidase-conjugated secondary antibodies are used to visualize labelled satellite cells. • ii) NOS activity are determined to assess the effect of treatments that manipulate NOS activity. […] This method is modified to study homogenized tissue NOS activity. • iii) NOS expression is determined using in situ hybridisation (and Northern blotting) with a riboprobe specific for NOS-Iμ (the muscle isoform of NOS-I), made with custom primers (Kobzik L, Reid M B, Bredt D S, and Stamler J S. (1994). […]

The nature of test [1]: Muscle weight to body weight (edema) and haemorrhage after crush injury, mdx mice. The note with it: L-NAME ip 30 min before crush. It is filed as in vivo.

For `COC(=O)[C@@H](N)CCCNC(=N)N[N+](=O)[O-]` [L-NAME, Nω-nitro-L-arginine methyl ester], in the test on regenerating muscle (L-NAME in drinking water (30 mg/kg/day) over 6 days of repair, n=4), the muscle regeneration entry is recorded as “muscle regeneration was reduced; also recorded: reduces normal muscle regeneration”. Also, in the test with regenerating muscle (L-NAME over 6 days of repair), the “density of myotubes per field vs saline-treated mice” value is listed as “much lower density per field”. For the same compound, in the test on regenerating muscle (longer term L-NAME exposure of regenerating mdx and normal muscle in vivo), the branched myotubes entry was “high prevalence of branched myotubes”. In the test on regenerating muscle (single injection of L-NAME before injury, 6 days, estimated), the “myotubes appearing as incompletely fused blocks of cells” value is on record as 5–10%. Further, in the test on regenerating muscle (single injection of L-NAME before injury, n=2), the “muscle regeneration after 6 days” value was “subtle effects on muscle regeneration”. Further, the “duration of decreased NOS activity” value at NOS (L-NAME, after ip injection) worked out at 40 min. For the same compound, the “NOS activity by NADPH-diaphorase staining” value on NOS (pre-treatment with L-NAME, muscle sections) is reported as “inhibited NOS activity”. Besides, the “increase in RTA weight after injury” value in test [1] is listed as “abolished the increase in RTA weight for 30 min”.
